Experimental data: patent publication US5573773A, “Stable highly concentrated formulations of fluorescein derivatives” (Ciba Geigy Corporation, priority 1992, dated 1996)
Read-outs that look alike come from different tables or passages of the source.

Legend:
[1] = test system: rabbit lens epithelium; assay: cytotoxic effect of irradiation of intracellular fluorescein in vivo on rabbit lens epithelium
Protocol: The cytotoxic effect of the irradiation of intracellular fluorescein with […] laser light (argon) is investigated in vivo on rabbit lens epithelium. This is done by first treating both rabbit eyes with Voltaren® eye drops (3 times over 24 hours) and expanding the pupillae with a mydriatic. The rabbits are operated on under a full anaesthetic. After a small incision of the cornea, the anterior chamber of the eye is thoroughly rinsed for 1 minute with sodium chloride solution (to remove natural chamber water), then slowly rinsed with 5 ml of FDA solution (1 ml/min) and filled, thereafter kept for a further 5 minutes and once more rinsed with sodium chloride solution for 1 minute (to remove excess FDA solution). While washing the chamber with FDA solution, sodium chloride solution is dropped onto the cornea (for rapid dilution and removal of the FDA solution flowing back from the chamber). […] Finally, irradiation (0.92 W to 0.64 W) is carded out for 30 seconds, the circular irradiation surface on the plane of the lens being 95 mm^2 (11 mm diameter). […] All investigated irradiation doses (291 mJ/mm^2 to 19 mJ/mm^2) were effective.

[2] = test system: T4 tumour cells; conditions: over 10 minutes
From the text: The higher the extracellular concentration of FDA, the higher the resultant intracellular concentration of fluorescein.

[3] = test system: living cells; assay: uptake by living cells; type: cell-based
From the text: (§1) Fluorescein therefore accumulates temporarily in the cells. […] Intensive irradiation reduces the intensity of fluorescein.
(§2) Loading the intracellular space of cells with fluorescein is, however, complicated by the fact that FDA is also hydrolysed by esterases in the extracellular fluid. The amount of FDA available for cell loading is thereby reduced. For reproducible clinical use it is therefore advisable to lower the concentration of extracellular esterases. This is conveniently done by washing the environment of the particular area which it is desired to treat. A further problem may arise from the fact that the FDA diffuses away from the site of actual use and, as a consequence thereof, is also taken up by cells that are not to be treated at all. This problem can be countered by optimising the local application of FDA as well as the defined irradiation, typically by using a particularly well focussed beam of light.

[4] = test system: human T24 carcinoma cells; assay: intracellular uptake of fluorescein from FDA dissolved in viscous medium Hymecel; type: cell-based
From the text: Eight minutes after removal of the viscous solution and washing the cells, the intracellular fluorescein concentration is 0.004 to 0.005 mmol/l after 0.01 mmol/l of FDA, 0.007 to 0.009 mmol/l after 0.02 mmol/l of FDA and 0.019 mmol/l after 0.04 mmol/l of FDA.

[5] = test system: rabbit eye cornea; assay: cytotoxic effect of irradiation of intracellular fluorescein in vivo on rabbit eye cornea; conditions: for lowest effective energy for fading effect: 488 nm argon laser
Protocol: The cytotoxic effect of the irradiation of intracellular fluorescein with 488 nm laser light (argon) is investigated in vivo on rabbit eye cornea. FDA solution is dropped on to the cornea for 10 minutes, followed by washing with physiological sodium chloride solution. Irradiation is afterwards effected. The intensity of florescence on the cornea rises sharply during this time, then slowly falls to zero over about 5 hours after washing. Irradiation of the fluorescing cornea results in black specks the size of which matches the area irradiated by the laser. The lowest effective energy for this fading effect is about 2.4 J/mm^2 with 0.01 mmol/l of FDA and 0.11 J/mm^2 with 0.02 mmol/l of FDA. […] The lower limit of the irradiation energy for this cytotoxic effect is up to 0.38 mJ/mm^2 (5 seconds and 20 seconds) using 0.02 mmol/l of FDA.

[6] = test system: human T24 carcinoma cells; assay: intracellular uptake and generation of fluorescein from FDA in T24 carcinoma cells by microscopic fluorimetry
From the text: (§3) After removal of FDA from the tissue culture medium, the generation of fluorescein from the cells can be measured. […] The intensity of fluorescence of intracellular fluorescein fades when the fluorescein is correspondingly excited. The higher the intracellular concentration of fluorescein at a given irradiation energy, the stonger this fading is: the lower level for a fading effect is 0.004 mmol/l of intracellular fluorescein for 71 mJ/mm^2 and 0.002 mmol/l for 560 mJ/mm^2 (irradiation time 120 seconds).

[7] = uptake by living cells; type: cell-based; conditions: living cells; intracellular; read-out: half-life of fluorescein within a cell
From the text: as §1, §2

[8] = test system: human T24 carcinoma cells; assay: fading of intracellular fluorescein on irradiation in T24 carcinoma cells; type: cell-based
[9] = test system: human T24 carcinoma cells; assay: cells; conditions: read-out: cells killed
From the text: The cytoxic action of irradiation (excitation 480 nm) of intracellular fluorescein from FDA is investigated using tissue culture of human T24 carcinoma cells. This is done by fluorometric determination of the intracellular fluorescein concentration under a microscope (excitation 480 nm; emission 520 nm) in single cells and the vitality via the uptake of propidium iodide.

[10] = in vitro; conditions: human, t24 carcinoma cells
From the text: as §3

Question: Which results are given for CC(=O)Oc1ccc2c(c1)Oc1cc(OC(C)=O)ccc1C21OC(=O)c2ccccc21 [FDA, fluorescein diacetate]?
Answer: effectiveness of investigated irradiation doses ([1]; 291 mJ/mm^2 to 19 mJ/mm^2): effective; fluorescence of the cornea surface near the incision site ([1]; FDA solution in anterior chamber): fluoresces minimally; fluorescence of the lens surface after irradiation ([1]; after irradiation): no longer fluoresces; fluorescence of the anterior lens capsule ([1]; before irradiation, epifluorescent stereomicroscope): constant marked increase of fluorescence; histological evaluation of lens in irradiation field ([1]; sacrificed about 18 hours later, irradiation 30 seconds): total necrosis of the lens epithelium and microscopically unchanged basal membrane, pyknotic nuclear residues and edematous swelling of the anterior subcapsular area of the lens; plateau concentration of intracellular fluorescein ([2]; 1 μm FDA solution): 25 μm; plateau concentration of intracellular fluorescein ([2]; 100 μm FDA solution): 70 μm; uptake by living cells [3]: readily taken up by most living cells; intracellular fluorescein concentration ([4]; 0.04 mmol/l of FDA in Hymecel, 8 minutes after removal and washing): 0.019 mmol/L; increase in intracellular fluorescein concentration and plateau values versus aqueous medium ([4]; FDA in Hymecel): approximately match those after incubation of the cells in aqueous medium; lowest effective energy for fading effect ([5]; 0.01 mmol/l of FDA): about 2.4 J/mm^2; lower limit of irradiation energy for cytotoxic effect ([5]; 0.02 mmol/l of FDA, 5 seconds and 20 seconds): up to 0.38 mJ/mm^2; lowest effective energy for fading effect ([5]; 0.02 mmol/l of FDA): 0.11 J/mm^2; time for cornea fluorescence to fall to zero after washing ([5]; FDA solution dropped on cornea for 10 minutes): about 5 hours; histology of irradiated cornea (black specks) ([5]; irradiated fluorescing cornea): areas of dead epithelial cells in the outermost layer of the cornea; intracellular fluorescein concentration ([6]; 0.0001 mmol/l of FDA): no longer measurable; intracellular fluorescein concentration ([6]; 0.001 mmol/l of FDA, after 10 minutes): 0.004 mmol/L; intracellular fluorescein concentration ([6]; 0.01 mmol/l of FDA, after 10 minutes): 0.01 mmol/L; intracellular fluorescein concentration ([6]; 0.02 mmol/l of FDA, after 10 minutes): 0.015 mmol/L; intracellular fluorescein concentration ([6]; 0.04 mmol/l of FDA, after 10 minutes): 0.017 mmol/L; duration of linear rise of intracellular fluorescein concentration ([6]; FDA added to medium): about 4 minutes; time to approximately plateau values of intracellular fluorescein concentration ([6]; FDA added to medium): about 10 minutes

Question: For O=C1OC2(c3ccc(O)cc3Oc3cc(O)ccc32)c2ccccc21 [fluorescein], which half-life [7] is on record?
Answer: ~15 min

Question: What about the “uptake by living cells” value [3] of the same molecule?
Answer: virtually not taken up by living cells

Question: And the “fading on irradiation for observation” value ([8]; 0.1 mW/mm^2, 1 to 10 minutes)?
Answer: no measurable fading

Question: What about the “lower level of intracellular fluorescein for a fading effect” value ([8]; 71 mJ/mm^2, irradiation time 120 seconds) of the same molecule?
Answer: 0.004 mmol/L

Question: What about the “lower level of intracellular fluorescein for a fading effect” value ([8]; 560 mJ/mm^2, irradiation time 120 seconds) of the same molecule?
Answer: 0.002 mmol/L

Question: What about the cytotoxicity at 7 µM ([9]; 15 s) of the same molecule?
Answer: 50%

Question: What about the cytotoxicity at 13 µM ([9]; 15 s) of the same molecule?
Answer: 50%

Question: What about the cytotoxicity at 3 µM ([9]; 2 min) of the same molecule?
Answer: 50%

Question: What about the cytotoxicity at 5 µM ([9]; 2 min) of the same molecule?
Answer: 50%

Question: What about the half-life [10] of the same molecule?
Answer: 10 to 25 min

Question: What about the “kinetics order of exclusion of fluorescein from the individual cells” value ([6]; after removal of FDA from the medium) of the same molecule?
Answer: first order kinetics

Question: What about the “uptake of pure fluorescein added to the cells” value ([6]; pure fluorescein) of the same molecule?
Answer: No uptake can be observed
